Measurements published in ChEMBL document CHEMBL4049438, “Discovery and Optimization of Isoquinoline Ethyl Ureas as Antibacterial Agents” (J Med Chem, 2017).
Converted amounts (≈) assume the structure as drawn.

Assays:
Enterococcus faecalis = assay: Antibacterial activity against Enterococcus faecalis ATCC 29212 by broth microdilution method; format: functional
[1] = Inhibition of Escherichia coli DNA topoisomerase 4 subunit ParC/ParE relaxation expressed in Escherichia coli BL21 (DE3) using supercoiled pBR322 DNA as substrate after 1 hr by agarose gel electrophoresis
Streptococcus pneumoniae [2] = assay: Antibacterial activity against fluoroquinolone-resistant Streptococcus pneumoniae A-70 harboring topoisomerase gyrA S81F mutant/parc S79F mutant/parE I440V mutant by broth microdilution method; format: functional
Escherichia coli [3] = assay: Antibacterial activity against TolC deficient Escherichia coli by broth microdilution method; format: functional
[4] = Inhibition of Staphylococcus aureus topoisomerase 4 subunit ParC/ParE relaxation expressed in Escherichia coli BL21 (DE3) using supercoiled pBR322 DNA as substrate after 1 hr by agarose gel electrophoresis
Staphylococcus aureus [5] = assay: Antibacterial activity against methicillin/fluoroquinolone-resistant Staphylococcus aureus A-798 harboring topoisomerase gyrA S84L mutant/grlA S80F/Glu84V mutant by broth microdilution method; format: functional
[6] = Inhibition of Escherichia coli N-terminal His6-tagged DNA gyrase subunit GyrA/GyrB supercoiling activity expressed in Escherichia coli BL21 (DE3) using relaxed pBR322 DNA as substrate after 1 hr by agarose gel electrophoresis
Haemophilus influenzae = assay: Antibacterial activity against Haemophilus influenzae A-921 by broth microdilution method; format: functional
Moraxella catarrhalis = assay: Antibacterial activity against Moraxella catarrhalis A-894 by broth microdilution method; format: functional
Streptococcus pneumoniae [7] = assay: Antibacterial activity against Streptococcus pneumoniae ATCC 49619 by broth microdilution method; format: functional
[8] = Inhibition of Haemophilus influenzae DNA gyrase subunit GyrA/GyrB supercoiling activity expressed in Escherichia coli BL21 (DE3) using relaxed pBR322 DNA as substrate after 1 hr mins by agarose gel electrophoresis
[9] = Inhibition of Haemophilus influenzae DNA topoisomerase 4 subunit ParC/ParE relaxation expressed in Escherichia coli BL21 (DE3) using supercoiled pBR322 DNA as substrate after 1 hr mins by agarose gel electrophoresis
Streptococcus pyogenes = assay: Antibacterial activity against Streptococcus pyogenes ATCC 19615 by broth microdilution method; format: functional
[10] = Inhibition of Streptococcus pneumoniae DNA topoisomerase 4 subunit ParC/ParE relaxation expressed in Escherichia coli BL21 (DE3) using supercoiled pBR322 DNA as substrate after 1 hr mins by agarose gel electrophoresis
Escherichia coli [11] = assay: Antibacterial activity against Escherichia coli ATCC 25922 by broth microdilution method; format: functional
Staphylococcus aureus [12] = assay: Antibacterial activity against Staphylococcus aureus ATCC 29213 by broth microdilution method; format: functional
[13] = Inhibition of Escherichia coli DNA gyrase subunit GyrA/GyrB R136H mutant supercoiling activity expressed in Escherichia coli BL21 (DE3) using relaxed pBR322 DNA as substrate after 1 hr mins by agarose gel electrophoresis
Enterococcus faecium = assay: Antibacterial activity against vancomycin/fluoroquinolone-resistant Enterococcus faecium A-949 harboring topoisomerase gyrA E88K mutant/parC S80R mutant by broth microdilution method; format: functional
[14] = AUC in mouse at 100 mg/kg, po after 24 hrs by LC-MS/MS analysis; format: ADME, organism-based; parameters: time < 24 hr, dose 100 mg/kg, route oral; conditions: in vivo
[15] = Protein binding to mouse plasma by rapid equilibrium dialysis method; format: ADME, cell-free; conditions: read-out: PPB (converted)
[16] = Octanol-phosphate buffer partition coefficient, logD of compound at pH 7.4 by LC/UV analysis; format: physicochemical
Staphylococcus aureus [17] = assay: Antibacterial activity against methicillin-sensitive Staphylococcus aureus A-1178 by broth microdilution method; format: functional
Staphylococcus aureus [18] = assay: Antibacterial activity against methicillin-sensitive Staphylococcus aureus A-1178 infected in neutropenic mouse assessed as change in bacterial burden in thighs at 30 mg/kg, po administered every 2.75 hrs for 2 times measured 6.5 hrs post infection; format: functional
DNA gyrase = DNA gyrase (Staphylococcus aureus, UniProt P0A0K8+P20831)
Mus musculus [19] = assay: Unbound AUC in mouse at 100 mg/kg, po after 24 hrs by LC-MS/MS analysis; format: ADME, organism-based; conditions: in vivo
hERG (KCNH2) = hERG (KCNH2) (Homo sapiens, UniProt Q12809); assay: Inhibition of human ERG expressed in CHO cells at 10 uM after 3 mins at -80 mV holding potential by Qpatch assay; format: cell-based; conditions: CHO cells expressing human ERG
[20] = AUC in mouse at 30 mg/kg, po after 24 hrs by LC-MS/MS analysis; format: ADME, organism-based; parameters: time < 24 hr, dose 30 mg/kg, route oral; conditions: in vivo
Mus musculus [21] = assay: Unbound AUC in mouse at 30 mg/kg, po after 24 hrs by LC-MS/MS analysis; format: ADME, organism-based; conditions: in vivo
[22] = Inhibition of fluoroquinolone-resistant Staphylococcus aureus clinical isolate DNA gyrase subunit GyrB/GyrA S84L mutant supercoiling activity using relaxed pBR322 DNA as substrate after 1 hr by agarose gel electrophoresis
[23] = biological target: DNA topoisomerase 2-alpha (Homo sapiens, UniProt P11388); assay: Inhibition of human DNA topoisomerase 2-alpha
Escherichia coli [24] = assay: Selectivity ratio of IC50 for Escherichia coli DNA topoisomerase 4 subunit ParC/ParE relaxation to IC50 for Escherichia coli N-terminal His6-tagged DNA gyrase subunit GyrA/GyrB supercoiling activity
[25] = Inhibition of Streptococcus pneumoniae DNA gyrase subunit GyrA/GyrB supercoiling activity expressed in Escherichia coli BL21 (DE3) using relaxed pBR322 DNA as substrate after 1 hr mins by agarose gel electrophoresis
Staphylococcus aureus [26] = assay: Selectivity ratio of IC50 for Staphylococcus aureus topoisomerase 4 subunit ParC/ParE relaxation to IC50 for Staphylococcus aureus N-terminal His6-tagged DNA gyrase subunit GyrA/GyrB supercoiling activity
[27] = Inhibition of Escherichia coli N-terminal His6-tagged DNA gyrase subunit GyrA/GyrB ATPase activity expressed in Escherichia coli BL21 (DE3) after 40 mins by spectrophotometric analysis

SMILES	MIC (Enterococcus faecalis) [µg/mL]	IC50 [1] [nM]	MIC (Streptococcus pneumoniae [2]) [µg/mL]	MIC (Escherichia coli [3]) [µg/mL]	IC50 [4] [nM]	MIC (Staphylococcus aureus [5]) [µg/mL]	IC50 [6] [nM]	MIC (Haemophilus influenzae) [µg/mL]	MIC (Moraxella catarrhalis) [µg/mL]	MIC (Streptococcus pneumoniae [7]) [µg/mL]	IC50 [8] [nM]	IC50 [9] [nM]	MIC (Streptococcus pyogenes) [µg/mL]	IC50 [10] [nM]	MIC (Escherichia coli [11]) [µg/mL]	MIC (Staphylococcus aureus [12]) [µg/mL]	IC50 [13] [nM]	MIC (Enterococcus faecium) [µg/mL]	Activity (Staphylococcus aureus [18]) [deltalog10CFU]	IC50 (DNA gyrase) [nM]	further results
O=C(O)c1cn(C2CC2)c2cc(N3CCNCC3)c(F)cc2c1=O [CIPROFLOXACIN]	1 (≈ 3.02 µM)	8000	> 16	≤ 0.03	8000	> 16	500	≤ 0.03	0.03 (≈ 0.0905 µM)	1 (≈ 3.02 µM)	8000	2000	0.25 (≈ 0.754 µM)	32000	≤ 0.03	0.25 (≈ 0.754 µM)	8000	> 16	–	–	–
CCNC(=O)Nc1cc2c(-c3ccnc(C)c3)ccc(CNC(=O)OCCOC)c2cn1	–	–	–	–	2000	–	–	–	–	–	–	–	–	–	–	0.125 (≈ 0.286 µM)	–	–	-1.3	8	AUC at 24 h [14]: 14000 ng·h/mL; fraction unbound [15]: 0.045; logD [16]: 3; MIC (Staphylococcus aureus [17]): 0.125 µg/mL (≈ 0.286 µM); fAUC (Mus musculus [19]): 630 ng·h/mL; inhibition at 0.05 h, 10 µM (hERG (KCNH2)): 20%
CCNC(=O)Nc1cc2c(-c3ccnc(C)c3)ccc(CNC(C)=O)c2cn1	–	–	–	–	2000	–	–	–	–	–	–	–	–	–	–	0.5 (≈ 1.32 µM)	–	–	0	8	AUC at 24 h [20]: 120 ng·h/mL; fraction unbound [15]: 0.123; logD [16]: 2.6; MIC (Staphylococcus aureus [17]): 0.5 µg/mL (≈ 1.32 µM); inhibition at 0.05 h, 10 µM (hERG (KCNH2)): 4%; fAUC (Mus musculus [21]): 15 ng·h/mL
CCNC(=O)Nc1cc2c(-c3ccnc(C)c3)ccc(Nc3ccc(C)nc3)c2cn1	≤ 0.03	2000	0.125 (≈ 0.303 µM)	0.5 (≈ 1.21 µM)	125	≤ 0.03	30	0.25 (≈ 0.606 µM)	0.25 (≈ 0.606 µM)	0.125 (≈ 0.303 µM)	30	125	0.125 (≈ 0.303 µM)	30	> 16	≤ 0.03	–	0.06 (≈ 0.145 µM)	-0.2	8	IC50 [22]: < 4 nM; IC50 [23]: > 256000 nM; Ratio IC50 (Escherichia coli [24]): 60; IC50 [25]: 125 nM; Ratio IC50 (Staphylococcus aureus [26]): 16
CCNC(=O)Nc1cc2c(-c3ccncc3)ccc(C)c2cn1	0.25 (≈ 0.816 µM)	8000	1 (≈ 3.26 µM)	2 (≈ 6.53 µM)	8000	0.5 (≈ 1.63 µM)	125	4 (≈ 13.1 µM)	0.5 (≈ 1.63 µM)	1 (≈ 3.26 µM)	125	8000	4 (≈ 13.1 µM)	500	> 16	0.5 (≈ 1.63 µM)	125	1 (≈ 3.26 µM)	-1.3	30	IC50 [22]: 30 nM; IC50 [23]: > 256000 nM; IC50 [25]: 2000 nM; IC50 [27]: < 200 nM
